According to paper PMC3914206:

Legend:
Format in all cases: binding
Conditions in all cases: Compound Concentration 10 µM
panel of 442 kinases [1] = biological target: T1, panel of 442 kinases (Homo sapiens, UniProt P80192)
T1 construct: purchased KINOMEscan
Excerpt: (§1) We assessed the selectivity of members of this scaffold using the KINOMEscan methodology across a near comprehensive panel of 442 kinases [[18,27]].

panel of 442 kinases [2] = biological target: T2, panel of 442 kinases (Homo sapiens, UniProt Q14004)
T2 construct: purchased KINOMEscan
Excerpt: as §1

panel of 442 kinases [3] = biological target: T3, panel of 442 kinases (Homo sapiens, UniProt Q99759)
T3 construct: purchased KINOMEscan
T3 sequence (Q99759 1-626): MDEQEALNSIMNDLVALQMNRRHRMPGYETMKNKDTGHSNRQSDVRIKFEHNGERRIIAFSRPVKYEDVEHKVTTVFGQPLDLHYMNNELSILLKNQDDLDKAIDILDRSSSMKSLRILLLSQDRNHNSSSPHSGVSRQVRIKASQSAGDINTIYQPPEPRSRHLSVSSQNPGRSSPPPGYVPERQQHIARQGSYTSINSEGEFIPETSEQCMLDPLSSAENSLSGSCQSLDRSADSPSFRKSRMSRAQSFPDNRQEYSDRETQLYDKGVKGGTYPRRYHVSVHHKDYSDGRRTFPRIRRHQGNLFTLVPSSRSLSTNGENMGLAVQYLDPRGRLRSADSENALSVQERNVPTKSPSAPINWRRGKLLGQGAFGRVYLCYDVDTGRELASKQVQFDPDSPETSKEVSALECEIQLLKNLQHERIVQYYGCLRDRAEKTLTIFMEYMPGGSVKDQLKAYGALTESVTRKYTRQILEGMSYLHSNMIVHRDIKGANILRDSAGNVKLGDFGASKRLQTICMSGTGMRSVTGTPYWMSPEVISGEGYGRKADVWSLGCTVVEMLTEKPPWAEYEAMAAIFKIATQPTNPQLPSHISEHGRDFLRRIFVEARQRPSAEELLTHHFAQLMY
Excerpt: as §1

T2 sequence (Q14004 whole entry): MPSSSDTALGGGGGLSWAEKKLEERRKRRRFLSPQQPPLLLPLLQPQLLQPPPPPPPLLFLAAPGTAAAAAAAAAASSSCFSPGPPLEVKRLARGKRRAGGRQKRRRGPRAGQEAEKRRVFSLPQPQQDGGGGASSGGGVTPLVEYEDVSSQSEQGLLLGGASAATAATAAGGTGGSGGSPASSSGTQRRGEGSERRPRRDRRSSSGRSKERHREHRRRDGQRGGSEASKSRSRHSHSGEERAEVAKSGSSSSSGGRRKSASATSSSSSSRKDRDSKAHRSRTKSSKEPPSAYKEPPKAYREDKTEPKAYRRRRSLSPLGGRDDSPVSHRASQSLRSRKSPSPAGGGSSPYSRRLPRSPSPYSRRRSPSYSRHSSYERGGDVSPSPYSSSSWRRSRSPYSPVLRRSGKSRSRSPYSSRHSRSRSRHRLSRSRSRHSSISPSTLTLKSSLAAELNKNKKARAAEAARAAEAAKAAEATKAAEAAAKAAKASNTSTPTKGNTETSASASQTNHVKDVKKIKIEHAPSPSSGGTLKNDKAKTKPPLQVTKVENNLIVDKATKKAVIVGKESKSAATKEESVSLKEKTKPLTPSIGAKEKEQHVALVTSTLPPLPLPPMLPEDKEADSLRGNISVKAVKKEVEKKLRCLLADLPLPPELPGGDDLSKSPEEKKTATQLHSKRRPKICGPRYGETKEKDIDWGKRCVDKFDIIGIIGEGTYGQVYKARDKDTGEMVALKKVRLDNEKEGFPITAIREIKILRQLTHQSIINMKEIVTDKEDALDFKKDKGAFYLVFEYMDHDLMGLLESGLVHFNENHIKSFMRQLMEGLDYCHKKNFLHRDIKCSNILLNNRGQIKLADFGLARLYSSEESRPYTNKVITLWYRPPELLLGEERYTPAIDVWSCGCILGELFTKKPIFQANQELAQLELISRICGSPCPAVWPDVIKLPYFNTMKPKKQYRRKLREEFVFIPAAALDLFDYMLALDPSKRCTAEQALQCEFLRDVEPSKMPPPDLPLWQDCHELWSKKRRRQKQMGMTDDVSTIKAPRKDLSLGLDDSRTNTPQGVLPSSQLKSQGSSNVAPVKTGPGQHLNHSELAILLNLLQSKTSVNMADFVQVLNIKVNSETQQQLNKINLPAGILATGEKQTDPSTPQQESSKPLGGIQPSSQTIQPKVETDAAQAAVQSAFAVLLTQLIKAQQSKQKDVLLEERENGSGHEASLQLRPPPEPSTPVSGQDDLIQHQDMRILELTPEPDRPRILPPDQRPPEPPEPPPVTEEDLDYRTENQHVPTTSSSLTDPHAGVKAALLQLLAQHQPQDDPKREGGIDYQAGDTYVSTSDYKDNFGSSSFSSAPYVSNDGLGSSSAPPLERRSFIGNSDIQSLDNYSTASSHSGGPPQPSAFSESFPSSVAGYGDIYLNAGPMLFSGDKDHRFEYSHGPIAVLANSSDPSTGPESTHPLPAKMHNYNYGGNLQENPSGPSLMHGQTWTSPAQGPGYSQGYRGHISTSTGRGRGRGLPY
T1 sequence (P80192 whole entry): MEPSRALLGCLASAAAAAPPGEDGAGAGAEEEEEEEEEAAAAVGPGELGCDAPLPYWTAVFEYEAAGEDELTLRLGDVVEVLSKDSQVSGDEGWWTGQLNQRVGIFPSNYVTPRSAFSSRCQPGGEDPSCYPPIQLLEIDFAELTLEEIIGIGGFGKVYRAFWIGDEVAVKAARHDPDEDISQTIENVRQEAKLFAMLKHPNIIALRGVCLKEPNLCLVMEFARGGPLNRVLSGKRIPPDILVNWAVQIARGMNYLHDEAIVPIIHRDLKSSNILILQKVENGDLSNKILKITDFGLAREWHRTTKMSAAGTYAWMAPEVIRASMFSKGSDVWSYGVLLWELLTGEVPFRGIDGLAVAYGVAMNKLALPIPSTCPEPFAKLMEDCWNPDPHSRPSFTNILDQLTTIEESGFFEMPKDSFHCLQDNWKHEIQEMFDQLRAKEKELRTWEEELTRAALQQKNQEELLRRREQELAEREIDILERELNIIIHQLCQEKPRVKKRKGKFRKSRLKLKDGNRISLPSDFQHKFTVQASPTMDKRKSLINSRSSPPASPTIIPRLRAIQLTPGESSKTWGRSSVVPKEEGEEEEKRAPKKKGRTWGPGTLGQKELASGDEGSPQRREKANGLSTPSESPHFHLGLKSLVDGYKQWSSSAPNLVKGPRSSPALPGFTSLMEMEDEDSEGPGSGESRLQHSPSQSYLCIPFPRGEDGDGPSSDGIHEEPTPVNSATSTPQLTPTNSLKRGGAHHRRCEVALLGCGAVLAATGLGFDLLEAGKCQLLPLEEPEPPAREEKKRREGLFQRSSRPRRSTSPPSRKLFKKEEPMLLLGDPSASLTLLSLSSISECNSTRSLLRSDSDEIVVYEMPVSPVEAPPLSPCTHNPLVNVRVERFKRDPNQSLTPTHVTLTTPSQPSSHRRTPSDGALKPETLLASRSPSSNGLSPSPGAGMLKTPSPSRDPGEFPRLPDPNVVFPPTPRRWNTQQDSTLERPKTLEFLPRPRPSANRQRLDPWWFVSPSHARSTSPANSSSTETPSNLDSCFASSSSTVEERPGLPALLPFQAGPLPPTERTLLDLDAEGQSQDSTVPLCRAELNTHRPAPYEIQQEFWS

SMILES	KINOMEscan: MLK1 (panel of 442 kinases [1])	KINOMEscan: CDC2L5 (panel of 442 kinases [2])	KINOMEscan: MAP3K3 (panel of 442 kinases [3])
COc1cc(C(=O)N2CCC(N3CCN(C)CC3)CC2)ccc1Nc1ncc2c(n1)N(C)c1ccccc1C(=O)N2C [15 (LRRK2-IN-1)]	93	100	97
COc1cc(C(=O)N2CCC(N3CCN(C)CC3)CC2)ccc1Nc1ncc2c(n1)N1CCc3cccc(c31)C(=O)N2C [Compound 24]	85		98
COc1cc(C(=O)N2CCC(N3CCN(C)CC3)CC2)ccc1Nc1ncc2c(n1)N(C1CCCC1)c1ccccc1C(=O)N2C [Compound 25, 11-cyclopentyl-2-((2-methoxy-4-(4-(4-methylpiperazin-1-yl)piperidine-1-carbonyl)phenyl)amino)-5-methyl-5H-benzo[e]pyrimido[5,4-b][1,4]diazepin-6(11H)-one]	100	100	100
CCOc1cc(C(=O)N2CCC(N3CCN(C)CC3)CC2)ccc1Nc1ncc2c(n1)N(C1CCCC1)c1ccccc1C(=O)N2C [Compound 26]	100	100	100
